# Experiments:
# Assay type in all cases: cell-based
# [1] = system: Trichophyton mentagrophytes; experiment: Antifungal activity in vitro, resazurin growth inhibition: Trichophyton mentagrophytes (B70554)
# Outline: (§1)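 Compound dilutions, with 64 μM as the highest in-test level, are spotted onto plates, then an inoculum of 10^3 cfu in RPMI-1640 plus 2% glucose (MOPS, pH 7.0±0.1) is added. Plates are incubated at species-dependent time and temperature, up to a week or more at 27° C. for dermatophytes.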
# Sporothrix schenkii = experiment: Antifungal activity in vitro, resazurin growth inhibition: Sporothrix schenkii (B62482)
# Outline: (§2)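 Fungi (10^3 cfu/well) grown in RPMI-1640 with L-glutamine, 2% glucose, MOPS pH 7.0, against 2- or 4-fold compound dilutions up to 64 μM. Dermatophytes incubated one week or more at 27° C. Growth inhibition read fluorimetrically (λex 550, λem 590 nm) after resazurin addition and further incubation.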
# Aspergillus fumigatus = experiment: Antifungal activity in vitro, resazurin growth inhibition: Aspergillus fumigatus (B42928)
# Outline: as §2
# Cryptococcus neoformans = experiment: Antifungal activity in vitro, resazurin growth inhibition: Cryptococcus neoformans (B66663)
# Outline: as §2
# Candida parapsilosis = experiment: Antifungal activity in vitro, resazurin growth inhibition: Candida parapsilosis (B66126)
# Outline: as §2
# Microsporum canis = experiment: Antifungal activity in vitro, resazurin growth inhibition: Microsporum canis (B68128)
# Outline: as §1
# Trichophyton rubrum = experiment: Antifungal activity in vitro, resazurin growth inhibition: Trichophyton rubrum (B68183)
# Outline: as §1
Structure (SMILES),"Inf. G: Trichophyton mentagrophytes B70554, pIC50 [1]","Inf. A: Sporothrix schenkii B62482, pIC50 (Sporothrix schenkii)","Inf. E: Aspergillus fumigatus B42928, pIC50 (Aspergillus fumigatus)","Inf. F: Cryptococcus neoformans B66663, pIC50 (Cryptococcus neoformans)","Inf. D: Candida parapsilosis B66126, pIC50 (Candida parapsilosis)","Inf. B: Microsporum canis B68128, pIC50 (Microsporum canis)","Inf. C: Trichophyton rubrum B68183, pIC50 (Trichophyton rubrum)"
Cc1ncc(C2=NCc3c(C)cccc3-n3cccc32)cn1 [Compound 99],<4.19,<4.19,<4.19,<4.19,<4.19,5.10,4.89
Cc1ncc(C2=NCc3c(Cl)cccc3-n3cccc32)cn1 [Compound 100],<4.19,<4.19,<4.19,<4.19,<4.19,4.21,<4.19
FC(F)(F)c1ncc(C2=NCc3ccccc3-n3cccc32)cn1 [Compound 101],5.57,<4.19,<4.19,<4.19,<4.19,4.56,5.23
Cc1cccc2c1CN=C(c1cnc(C(F)(F)F)nc1)c1cccn1-2 [Compound 103],<4.19,<4.19,<4.19,<4.19,<4.19,<4.19,4.49
FC(F)(F)c1ncc(C2=NCc3c(Cl)cc(Cl)cc3-n3cccc32)cn1 [Compound 104],<4.19,<4.19,5.54,<4.19,<4.19,<4.19,5.91
Cn1ccc2cc(C3=NCc4c(Cl)cccc4-n4cccc43)ccc21 [Compound 106],5.51,4.90,5.05,5.26,5.09,5.79,6.18
Cn1nc2ccc(C3=NCc4c(Cl)cccc4-n4cccc43)cc2n1 [Compound 108],5.43,<4.49,<4.49,<4.49,<4.49,4.98,5.99
Cn1nc2ccc(C3=NCc4c(Cl)cc(Cl)cc4-n4cccc43)cc2n1 [Compound 109],4.37,<4.19,<4.19,4.34,<4.19,<4.19,5.70
Cc1ccc2cc(C3=NCc4c(Cl)cccc4-n4cccc43)ccc2n1 [Compound 112],<4.19,<4.19,<4.19,5.07,<4.19,5.18,6.02
Cc1ccc2cc(C3=NCc4c(F)cccc4-n4cccc43)ccc2n1 [Compound 113],<4.19,<4.19,<4.19,<4.19,<4.19,<4.19,5.86
Cc1ccc2cc(C3=NCc4c(F)cc(F)cc4-n4cccc43)ccc2n1 [Compound 114],<4.19,<4.19,<4.19,<4.19,<4.19,<4.19,5.75
Fc1cc(F)c2oc(C3=NCc4c(Cl)cc(Cl)cc4-n4cccc43)cc2c1 [Compound 129],<4.19,<4.19,5.61,<4.19,<4.19,<4.19,4.96
Cc1cccc2oc(C3=NCc4c(Cl)cccc4-n4cccc43)cc12 [Compound 132],<4.49,<4.49,<4.49,<4.49,<4.49,4.59,5.54
Cc1cccc2oc(C3=NCc4ccc(Cl)cc4-n4cccc43)cc12 [Compound 133],<4.19,<4.19,<4.19,5.83,<4.19,<4.19,<4.19
Cc1ccc2oc(C3=NCc4ccc(Cl)cc4-n4cccc43)cc2c1 [Compound 135],<4.19,<4.19,<4.19,4.54,<4.19,4.41,5.91
Cc1ccc2oc(C3=NCc4c(Cl)cc(Cl)cc4-n4cccc43)cc2c1 [Compound 136],<4.19,<4.19,<4.19,<4.19,<4.19,4.41,5.67
Cc1ccc2cc(C3=NCc4c(Cl)cc(Cl)cc4-n4cccc43)oc2c1 [Compound 139],<4.19,<4.19,<4.19,<4.19,<4.19,4.46,4.40
COc1cccc2cc(C3=NCc4ccc(Cl)cc4-n4cccc43)oc12 [Compound 142],<4.19,<4.19,<4.19,<4.19,<4.19,<4.19,5.64
COc1cccc2cc(C3=NCc4cccc(Cl)c4-n4cccc43)oc12 [Compound 143],<4.19,5.49,<4.19,5.20,<4.19,<4.19,6.11
